According to ChEMBL document CHEMBL1142502, “An endoplasmic reticulum (ER) stress-suppressive compound and its analogues from the mushroom Hericium erinaceum” (Bioorg Med Chem, 2008):
The source made the active and inactive calls. No cut-off for these calls is given here.

Columns and labels:
Type in all cases: functional, cell-based
[1] = test system: N2a; experiment: Protection against tunicamycin-induced endoplasmic reticulum stress-dependent mouse Neuro2a cells death upto 10 ug/ml after 24 hrs by MTT assay
[2] = test system: N2a; experiment: Protection against thapsigargin-induced endoplasmic reticulum stress-dependent mouse Neuro2a cells death upto 10 ug/ml after 24 hrs by MTT assay
[3] = test system: N2a; experiment: Protection against tunicamycin-induced endoplasmic reticulum stress-dependent mouse Neuro2a cells death after 24 hrs by MTT assay
[4] = test system: N2a; experiment: Protection against thapsigargin-induced endoplasmic reticulum stress-dependent mouse Neuro2a cells death after 24 hrs by MTT assay

| SMILES | Activity [1] | Activity [2] | Activity [3] | Activity [4] |
| --- | --- | --- | --- | --- |
| COc1cc2c(c(O)c1C/C=C(\C)CCC=C(C)C)C(=O)OC2 | inactive | inactive |  |  |
| COc1cc2c(c3c1CCC(C)(CC(=O)C=C(C)C)O3)COC2=O (racemic) | inactive | inactive |  |  |
| CCCCCCCCCCCCCCCC(=O)OCc1cc(OC)c2c(c1C=O)O[C@@](C)(CC(=O)C=C(C)C)[C@@H](O)C2 (relative stereo) |  |  | Dose-dependent effect | Dose-dependent effect |
